row,SMILES,melting point
1,Nc1cc(=O)[nH]c2c1cnn2-c1ccccc1,223 to 225 °C
2,CCCCCCCCCCC[C@H](CC(=O)N[C@@H](CO)C(=O)OCc1ccccc1)OC(=O)CCCCCCC,50 to 51 °C
3,Clc1cc(Cl)n2c(-c3cccs3)ncc2n1,152 to 153 °C
4,c1ccc(C2=Nc3cccnc3Nc3ccccc32)cc1,106 to 108 °C
5,CCC(C)C(NC(=O)C(CS)C(F)(F)F)C(=O)O (stereo not given),140 to 142 °C
6,CCOc1ccccc1C1OC(=O)NC1=O (stereo not given),165 to 167 °C
7,CC(CCCC(C)(C)O)C1CCC2C3CCC4(O)CC(O)CCC4(C)C3CCC12C (stereo not given),202 to 204 °C
8,CCc1cc(Oc2c(Cl)cc(C(F)(F)F)cc2Cl)n[nH]1,118 to 121 °C
9,CC(=O)c1c(CN2CCOCC2)[nH]c2ccc(Cl)cc12,120 to 121 °C
10,CN(C)C(=O)[C@H]1C[C@H]1C(=O)N(C)C,103 to 104 °C
11,CCOC(=O)c1c(C(F)(F)F)nc(C(F)(F)Cl)c(C(=O)OC)c1NC(C)C,43.5 to 45 °C
12,CC(C)c1ccc2c(c1)[C@H]1Cc3ccccc3[C@H]1N2 (relative stereo),104 °C
13,CC(C)C(O)c1ccc(-c2ccc(Cl)cc2)cc1 (stereo not given),71 to 72 °C
14,Cc1c(F)c(F)c(C(=O)NC(C(C)C)C(C)C)c(F)c1F,184 to 187 °C
15,CC(=O)C1CCC2C3CCC4C=CCCC4(C)C3CCC12C (stereo not given),135 to 136 °C
16,CCOC(=O)c1ncc2c(c1COC)c1c(OS(=O)(=O)C(F)(F)F)cccc1n2S(=O)(=O)C(F)(F)F,60 to 62 °C
17,O=c1[nH]c2cc(Cl)ccc2c(=O)n1S(=O)(=O)c1ccc(Cl)cc1,286 to 287 °C
18,CSC(=S)NCc1ccc([N+](=O)[O-])cc1,106 to 107 °C
19,O=c1c2cccc3ncc(c(=O)n1CCCCCNS(=O)(=O)C(F)(F)F)n32,166 to 167 °C
20,CSc1ccccc1C=NO,88 to 89 °C
21,Cc1cc(NCC(C)C)c(N)c2nnnn12,159 to 162 °C
22,NC(=S)c1cccc(-c2cccc(C(N)=S)c2)c1,188 to 190 °C
23,CC(C)Oc1ccc(NC(=O)C2(C)CC2)cc1C(F)(F)F,106 to 109 °C
24,CC1(C)C=NC(C(NC(c2ccccc2)(c2ccccc2)c2ccccc2)C(=O)O)S1 (stereo not given),180 to 182 °C

row,SMILES,melting point
1,CC(C)Oc1n[nH]c(=O)n1C,142 °C
2,CS(=O)(=O)C(C#N)=Cc1c(Cl)n(Cc2ccccc2)c2ccccc12,206 °C
3,CC(C)C[C@H](NC(=O)OCc1ccccc1)C(=O)N[C@@H](Cc1ccccc1)C(=O)CSCc1ccccc1,86 to 87 °C
4,CC[C@H](C)[C@H](NC(=O)O[C@@H](CC(C)C)C(=O)O)C(=O)NC(C)C,179 to 180 °C
5,CCOC(=O)C(=CNC1CC1)C(=O)c1cc(F)c(F)c(Br)c1F,74 to 76 °C
6,Clc1ccc2c(c1)OCc1cccnc1C2N1CCNCC1 (stereo not given),162 to 164 °C
7,COc1nc(NS(=O)(=O)c2ccccc2Cl)nc(OC)n1,137 °C
8,Cc1ccc(CC(=O)O)s1,54 °C
9,CN(c1cccc2cc(C3=NCCS3)[nH]c12)S(=O)(=O)c1cccs1,192 to 193 °C
10,CCOC(=O)C=Cc1cc(-c2ccc3c(c2)C(C)(C)CCC3(C)C)cs1,82 to 84 °C
11,N#CC(=Cc1ccsc1)C(=O)O,211 °C
12,BrCCCCCCC1(CCCCCCBr)c2cc(Br)ccc2-c2ccc(Br)cc21,68 °C
13,Cc1cc(N2C(=O)c3ccccc3C2=O)c(C)cc1N,167 to 169 °C
14,CCCCCCCCCCCCCCCCCCC(N=C(c1ccccc1)c1ccccc1)C(=O)OCC (stereo not given),62 to 65 °C
15,Cc1ccc(S(=O)(=O)NC(=N)CCN2CCOC2=O)cc1,129 to 134 °C
16,O=c1oc2cccc(O)c2c(O)c1-c1ccccc1,256 to 265 °C
17,CON=C(C#N)C(N)=O,170 to 172 °C
18,CC(C)(O)CON1C(C)(C)CC(O)CC1(C)C,127 to 131 °C
19,CC(=O)Nc1cc(F)ccc1O,185 to 186 °C
20,CC(C)Oc1cc(NC(=O)CC(CCCl)C(F)(F)F)c(F)cc1Cl (stereo not given),57 to 63 °C
21,C=C1CSc2sccc2C1=O,64 to 65 °C
22,CCCc1nc2c(N)nc3cccnc3c2n1CC1(O)CC1,199 to 200 °C
23,NC(=O)NC1CCCc2sc(Br)cc21 (stereo not given),206 to 210 °C

# Results, then the compound that gave them:
row,melting point,SMILES
1,132 to 133 °C,CC(C)(C)OC(=O)N1CCc2c(n(CCOc3ccccc3)c3cc(Cl)cc(Cl)c23)CC1
2,144 to 145 °C,N#Cc1ccc(OCc2ccc3c(c2)OCO3)cc1OC(C(=O)O)c1ccccc1Cl (racemic)
3,127 °C,CCOC(=O)c1ccc(-c2ccc(F)cc2)cc1-c1ccc(OC)c(OC)c1
4,57 to 58 °C,COC(=O)CCC(CCCCNS(=O)(=O)c1ccc(Cl)cc1)CCOc1cccnc1 (stereo not given)
5,138 to 139 °C,COC(c1ccc(NC(=O)c2c(C(F)(F)F)nn(C)c2C)cc1CC(C)C)(C(F)(F)F)C(F)(F)F
6,137 to 138 °C,CCOc1nc(-c2ccco2)c2ncn(Cc3ccc(OC)cc3)c2n1
7,137 °C,COC(C)(C)CNCc1cnc2c(C)c(NC(=O)c3ccc(OCC4CCOC4)cc3)ccc2c1 (stereo not given)
8,266 to 272 °C,O=S1(=O)NC2CCCN2c2ccc(Oc3cccc(-c4nnn[nH]4)c3)cc21 (stereo not given)
9,187 to 188 °C,Cc1cc(F)ccc1-c1nc(NCC(F)(F)F)nc2c1ccc(=O)n2-c1ccccc1F
10,123 to 125 °C,CCCN(CCC)CCOc1ccc2[nH]c(C)c(C(=O)OCc3ccccc3)c2c1
11,125 to 128 °C,CC(=O)NC1(c2ccccc2)CCN(CC[C@@H](c2ccc(Cl)c(Cl)c2)[C@@H](O)c2cnnn2-c2ccccc2)CC1 (racemic)
12,155 to 156 °C,COc1cccc(COc2ccc3oc(-c4nc(C(C)(C)C)cs4)cc3c2)c1OC(C)C(N)=O (stereo not given)
13,224 to 227 °C,Cc1ccc(-c2cc3ccc(C(=O)Nc4ccc(CN(C)C5CCOCC5)cc4)cc3o2)cc1
14,81 to 82 °C,COc1ccc(-c2csc(C)n2)cc1OC1CC2CCC1C2 (stereo not given)
15,148 to 149 °C,COc1ccc(C(C)=NOCCOc2ccc(CC3SC(=O)NC3=O)cc2)cn1 (stereo not given)
16,200 °C,COc1ccc(NC(=O)c2ccc([N+](=O)[O-])cc2)cc1
17,189 to 192 °C,CC(C)([C@H](NC(=O)OCC1c2ccccc2-c2ccccc21)C(=O)O)S(C)(=O)=O
18,42 to 43 °C,COC(=O)C(=O)c1ccc(OCCCc2ccc(F)cc2)cc1
19,134 to 137 °C,CCCN1C=CC=C2C(=O)NC(c3ccccc3OCC)N=C21 (stereo not given)
20,248 °C,CC(C)(C)OC(=O)COc1ccc(NC(=O)NC(=O)c2ccc(C(N)=S)cc2)cc1
21,203 to 205 °C,CCOc1c(Nc2cc(C3C(C(=O)OC)=C(C)NC(C)=C3C(=O)OC)ccc2F)c(=O)c1=O
22,148 to 150 °C,CC(=O)Nc1ccc(F)c(-c2ccncc2)c1F
23,111 to 113 °C,CCOC(=O)c1c(N(C)CCO)c2ccc(C)nc2n(CC)c1=O
24,> 250 °C,CCn1c(C)nc2cc(C(=O)O)ccc21
25,99 to 101 °C,CC(C)(C)OC(=O)N1CC(NC(=O)CNC(=NC(=O)OCc2ccc([N+](=O)[O-])cc2)NC(=O)OCc2ccc([N+](=O)[O-])cc2)C1
26,128 °C,NS(=O)(=O)Oc1ccc2cc(C3CCCCC3)sc2c1
27,224 to 227 °C,COC(=O)c1ccc2nc3n(c(=O)c2c1)CCC3=Cc1ccccc1

row,melting point,SMILES
1,106 to 107 °C,CC(C)c1nc(CCCOc2ncccc2CC(=O)O)c(Cc2ccc(Cl)cc2Cl)s1
2,280 °C,O=C(NC(=O)c1ccc([N+](=O)[O-])cc1Cl)Nc1ccc(Cl)c(Cl)c1
3,160 to 162 °C,CCCNC(=O)C(Cc1ccc2c(c1)c(Cc1ccc(C(=O)O)cc1OC)cn2CCC)C(C)C (stereo not given)
4,213 to 215 °C,N#Cc1ccc(N2CCN(Cc3cnc4c(c3)NC(=O)[C@@H]3CCCN43)CC2)c(Cl)c1
5,229 to 230 °C,O=C(CN1C(=O)C2(COc3cc4c(cc32)CCO4)c2cc(Cl)ccc21)Nc1ccccc1F (stereo not given)
6,219 to 221 °C,CCOC(=O)c1nc2ccc(N)cc2c(O)c1C(=O)OCC
7,110 to 112 °C,CCCc1nc2c(C)ccnc2n1Cc1ccc(-c2ccncc2-c2nnn[nH]2)cc1
8,251 to 252 °C,COc1ccc2c(c1)c(-c1ccccc1)nc1nnc(C)n12
9,115 °C,O=Cc1ccnc2ccc(-c3ccccc3)cc12
10,142 to 143 °C,CN(C)CCNC(=S)SC(C)(C)[C@H](NC(=O)c1ccc(Cl)cc1)C(=O)O
11,300 to 301 °C,CCOC(=O)c1cn(CC)c2nc3cc(Cl)c(F)cc3cc2c1=O
12,261 to 263 °C,O=C(Nc1cn2cc(-n3ccnc3)ccc2n1)c1ccc(-c2ccoc2)cc1
13,120 to 122 °C,CCCCCc1c(-c2ccc3cc(OCc4nnn[nH]4)ccc3c2)n(C)c2ccccc12
14,141 to 145 °C,OCCCNc1cc(-c2ccnc(Nc3cccc(OC(F)(F)C(F)F)c3)n2)ccn1
15,133 to 135 °C,O=S(=O)(c1ccc(Cl)cc1)C(c1ccncc1)C1CCCC1 (stereo not given)
16,194 °C,CCOC(=O)c1[nH]cc2c1NC1=C(C(=O)CCC1)C2c1cnc(Sc2nc3ccccc3[nH]2)s1 (stereo not given)
17,152 to 153 °C,Cc1cc(C(=O)N2Cc3cccn3Cc3ccccc32)ccc1I
18,196 to 201 °C,CC(C)(CN)Nc1ncc2ncnc(Nc3ccc(F)c(Cl)c3)c2n1
19,119 to 120 °C,CCCCN1C(=O)C2(COc3cc4c(cc32)OCO4)c2ccccc21 (stereo not given)
20,226 to 227 °C,COc1cccc(Oc2nc(N)n3nc(-c4ccco4)nc3n2)c1
21,154 to 156 °C,COC(=O)c1ccc2oc(-c3cc(C)ccc3OC)cc(=O)c2c1
22,123 to 128 °C,S=C(NCc1ccccc1Cl)N1CCc2c([nH]c3ccccc23)C1c1ccc2c(c1)OCO2 (stereo not given)
23,242 to 243 °C,Fc1ccc(-c2nc(-c3ccc(CN4CCOCC4)cc3)[nH]c2-c2ccncc2)cc1
24,172 to 173 °C,O=S1(=O)c2cccc3cccc(c23)N1CCCN1CCN(c2nsc3ccccc23)CC1
25,80 to 83 °C,CC1(C(=O)c2c[nH]c3ncc(-c4cccc(CCCO)c4)nc23)CCCCC1
26,> 300 °C,O=C(O)c1c2c(nc3ccc(F)cc13)-c1cc(F)c(-c3ccc(F)cc3)cc1CCC2

# From a melting point compilation (Tetko et al.; mined from patent text by program, amines drawn as free bases though some values may be those of a salt)
